Activity and inhibition data for 5 compounds are collected here from ChEMBL document CHEMBL4004791, “Ceylonins A-F, Spongian Diterpene Derivatives That Inhibit RANKL-Induced Formation of Multinuclear Osteoclasts, from the Marine Sponge Spongia ceylonensis” (J Nat Prod, 2017).

Data set [1] in a line: Cytotoxicity against mouse RAW264 cells at 50 uM. In kind it is cell-based. Particulars: raw264, 50 µM.
Data set [2] is described as follows: (§1) Inhibition of RANKL-induced osteoclastogenesis in mouse RAW264 cells at 50 uM after 4 days by TRAP staining based assay relative to control. In kind it is functional. Particulars: RAW264.7, 96 h.
Data set [3] concerns RAW264. The data set can be described thus: Inhibition of RANKL-induced osteoclastogenesis in mouse RAW264 cells after 4 days by TRAP staining based assay. In kind it is functional, cell-based.
In data set [4] the test system is RAW264. Described as §1. It is filed as functional.

SMILES strings stand for the structures. Active and inactive are the calls of the source. The calls are words filed in the database; no cut-off is given here.

For `C[C@]12CCC[C@](C)(C(=O)O)[C@@H]1CC[C@@]1(C)C3=C(CC[C@H]21)[C@@H]1O[C@H]3C[C@@H]1C(=O)O`, the Activity entry in data set [1] was “Non-Toxic”. Further, the inhibition (commonly how much of the control response was suppressed) at 50 µM in data set [2] was 70%. The inhibition result in the data set on RAW264 [3] is “Dose-dependent effect”.

Take `C[C@]12CCC[C@](C)(C(=O)O)[C@@H]1CC[C@@]1(C)c3cocc3CC[C@H]21`: the inhibition entry in the data set with RAW264 [4] was “inactive”.

`C[C@]12CCC[C@](C)(C(=O)O)[C@@H]1CC[C@@]1(C)C3=C(CC[C@H]21)[C@H]1C[C@H](C(=O)O)[C@@H]3O1`: in data set [2], the inhibition at 50 µM was 47%.

In the case of `C[C@]12CCC[C@](C)(C(=O)O)[C@@H]1CC[C@@]1(C)C3=C(CC[C@H]21)[C@@H]1C[C@@H](C(=O)O)[C@H]3O1`, testing at 50 µM in data set [2] gave an inhibition of 31%.

Turning to `C[C@]12CCC[C@](C)(C(=O)O)[C@@H]1CC[C@@]1(C)C3=C(CC[C@H]21)[C@H]1O[C@@H]3C[C@@H]1C(=O)O`, 50 µM produced 28% inhibition in data set [2].
